Measurements as given in PubChem BioAssay AID1361 (SRMLSC, 2008).
pIC50: −log10 of the molar value. Active and inactive are the calls of the source. How the calls were made is not given here.

Assay: blockers of mitochondrial fusion, WT vs mutant – cell-based, chemical genetic, wild-type and mutant, confirmation (AID 1361)
Settings: Cell-based mitochondrial fusion phenotype, imaging
[1] = mutant cells, measured here: mutant cell line IC50

| Structure (SMILES) | IC50 (WT cells) | pIC50 [1] | pIC50 (WT cells) |
| --- | --- | --- | --- |
| CC(C)c1ccc(NC(=O)c2sccc2-n2cccc2)cc1 | > 25 µM (inactive) | < 4.60 |  |
| O=C(COC(=O)c1ccc([N+](=O)[O-])s1)Nc1ncc(C(F)(F)F)cc1Cl |  | < 4.60 | 4.74 |
| Cc1ccc(O)c(-c2cc(-c3ccccc3[N+](=O)[O-])[nH]n2)c1 | > 25 µM (inactive) | < 4.60 |  |
| CC(C)Oc1ccc(C(=O)NC2(C(F)(F)F)NC(=O)N(CCCc3ccccc3)C2=O)cc1 (stereo not given) |  | < 4.60 | 4.70 |
| CS(=O)(=O)c1nc2ccccc2n1Cc1ccccc1 | > 25 µM (inactive) | < 4.60 |  |
| COc1ccc(S(=O)(=O)N2CCC[C@H]2C(=O)NC2=NCCS2)cc1 | > 25 µM (inactive) | < 4.60 |  |
| COc1ccccc1-n1c(SCC(=O)c2ccc(O)cc2O)nc2cc([N+](=O)[O-])ccc21 |  | < 4.60 | 5.22 |
| O=C(Nc1ccc(C(O)(C(F)(F)F)C(F)(F)F)cc1)c1ccc(Cl)c([N+](=O)[O-])c1 |  | < 4.60 | 4.73 |
| FC(F)(F)c1cnc(N2CCC(=NOCc3ccc(Cl)cc3)CC2)c(Cl)c1 |  | < 4.60 | 4.86 |
| CCC1(C)Cc2c(sc3[nH]c(=S)n(Cc4ccccc4)c(=O)c23)CO1 (stereo not given) |  | < 4.60 | 4.67 |
| Cc1ccc(CNC(=O)CCNC(=O)c2ccco2)cc1 | > 25 µM (inactive) | < 4.60 |  |
| O=C(CSc1nnnn1-c1ccccc1)NCc1cccs1 | > 25 µM (inactive) | < 4.60 |  |
| CC1CN(C(=O)N(C)C)CCN1C(=O)N(C)C (stereo not given) | > 25 µM (inactive) | < 4.60 |  |
| CCn1ccnc1CN1CCc2c([nH]c3ccccc23)C1CC(C)C (stereo not given) | > 25 µM (inactive) | < 4.60 |  |
| O=C(c1cc(-c2ccc(Cl)cc2)n(-c2ccc(Cl)c(Cl)c2)n1)N1CCOCC1 |  | < 4.60 | 4.77 |
| CCCCNC(=O)C1CCN(S(=O)(=O)c2cnc[nH]2)CC1 | > 25 µM (inactive) | < 4.60 |  |
| Cc1oc(-c2ccccc2)[n+]([O-])c1C | > 25 µM (inactive) | < 4.60 |  |
| Oc1ccc(/C=N/Nc2nc(N3CCCCCC3)nc(N3CCCCCC3)n2)c(O)c1 |  | < 4.60 | 5.02 |
| N#C[C@H]1[C@H](c2ccccc2)[C@](C#N)(C(=O)c2ccccc2)[C@@H]2C=Cc3ccccc3N21 | > 25 µM (inactive) | < 4.60 |  |
| C/C(=N\Nc1nc(N2CCCCCC2)nc(N2CCCCCC2)n1)c1ccccc1 |  | < 4.60 | 4.90 |
| COc1ccccc1NC(=O)c1cccc(NC(=O)c2ccco2)c1 | > 25 µM (inactive) | < 4.60 |  |
| O=c1c2ccccc2nc2n1C1(CCCCC1)Cc1ccccc1-2 |  | < 4.60 | 4.63 |
| COc1ccc(/C=C/C(=O)N2CCN(c3ccccn3)CC2)c2ccccc12 |  | < 4.60 | 4.70 |
| COCCNC(=O)CC(NS(=O)(=O)c1ccc(C)cc1)c1ccco1 (stereo not given) | > 25 µM (inactive) | < 4.60 |  |
| O=C(CSc1nc2cc(Cl)ccc2o1)NCCc1ccccc1 | > 25 µM (inactive) | < 4.60 |  |
| Cc1ccc(Nc2nc(N)nc(CSc3nc4ccccc4s3)n2)cc1 |  | 4.77 | 4.85 |
| C/C1=C\[C@@H](C)C/C=C/[C@H]2[C@@H]3O[C@]3(C)[C@@H](C)[C@H]3[C@H](Cc4c[nH]c5ccccc45)NC(=O)[C@]32C(=O)/C=C/C(=O)[C@@H]1O |  | < 4.60 | 4.72 |

| Structure (SMILES) | IC50 (WT cells) | pIC50 [1] | pIC50 (WT cells) |
| --- | --- | --- | --- |
| CCCc1cc(-c2nc(N)ncc2-c2ccc3c(c2)OCCCO3)c(O)cc1OC |  | < 4.60 | 4.85 |
| Cc1[nH]c2ccccc2c1/C=C(\C#N)C(=O)NC(C)c1ccccc1 (stereo not given) | > 25 µM (inactive) | < 4.60 |  |
| CNc1oc(C)nc1S(=O)(=O)c1ccc(C)cc1 | > 25 µM (inactive) | < 4.60 |  |
| COCCn1c(SCc2nnc(-c3ccccc3)o2)nc2sc3c(c2c1=O)CCC3 |  | 4.75 | 5.08 |
| CN1C=CC=C/C1=C1\SC(=S)N(c2ccccc2)C1=O | > 25 µM (inactive) | < 4.60 |  |
| CCOc1ccccc1NC(=O)NC(=O)N(C)S(=O)(=O)c1ccc(C)cc1 | > 25 µM (inactive) | < 4.60 |  |
| O=c1cc(-c2ccc(C3CCCCC3)cc2)[nH][nH]1 | > 25 µM (inactive) | < 4.60 |  |
| N#CC(c1ccc(Cl)cc1)(c1ncc(C(F)(F)F)cc1Cl)N1CCOCC1 (stereo not given) | > 25 µM (inactive) | < 4.60 |  |
| Cc1cc(=O)n2[nH]c(-c3ccc(F)cc3)cc2n1 | > 25 µM (inactive) | < 4.60 |  |
| CC(C)(C)NC(=O)NC(=O)COC(=O)Cc1coc2ccc3ccccc3c12 |  | < 4.60 | 4.67 |
| COc1ccccc1-c1nnc(SCC(=O)NCc2c(C)c(Cl)cc(C(C)C)c2O)o1 |  | < 4.60 | 5.01 |
| Cc1ccc(Nc2nc(N)c([N+](=O)[O-])c(NCc3ccco3)n2)cc1C |  | < 4.60 | 4.81 |
| CCn1c(CCCOc2ccc(Cl)cc2Cl)nnc1SCC(=O)Nc1cc(F)ccc1C |  | < 4.60 | 4.80 |
| Cc1cccc(N/N=C(\C=N\N)C(=O)c2ccc(Br)cc2)c1 | > 25 µM (inactive) | < 4.60 |  |
| O=C(CSc1ncn[nH]1)NCc1ccccc1 | > 25 µM (inactive) | < 4.60 |  |
| O=C(c1ccc(C(F)(F)F)cc1)N1CCC(=O)N(C(COCc2ccc(Cl)cc2)Cc2ccccc2)CC1 (stereo not given) |  | < 4.60 | 4.72 |
| COc1cccc(N2C(=O)C(c3ccccc3)=C(c3nc4ccccc4s3)C2NC(C)=O)c1 (stereo not given) | > 25 µM (inactive) | < 4.60 |  |
| Clc1ccc2c(c1)C(c1ccccc1Cl)=NCc1nnc(N3CCN(CCOc4ccccc4)CC3)n1-2 |  | < 4.60 | 4.63 |
| Cc1cc(-c2ccccc2)nc2cc(C(=O)N(Cc3ccccc3)Cc3ccccc3)nn12 |  | < 4.60 | 5.08 |
| CCCN(CCC)CCCNC(=O)CS(=O)Cc1nc(-c2ccc(OC)c(OC)c2)oc1C (stereo not given) | > 25 µM (inactive) | < 4.60 |  |
| CCC(=O)Nc1ccc(-c2nnc(SCc3ccc(C(=O)Nc4nccs4)cc3)n2CC)cc1 | > 25 µM (inactive) | < 4.60 |  |
| CC(=O)Cc1nsc(NC(=O)c2ccc(-c3cc(Cl)ccc3Cl)o2)n1 | > 25 µM (inactive) | < 4.60 |  |
| CCOC(=O)c1cc2c(ccn2C)n1Cc1cc(C)ccc1C | 25 µM (inactive) | < 4.60 |  |
| O=C(c1ccc(Cl)c(Cl)c1)c1cnc(Nc2ccccc2)s1 | > 25 µM (inactive) | < 4.60 |  |
| NC(=S)N/N=C/c1ccccc1OCCSc1ccc(Cl)cc1 |  | 4.92 | 5.16 |
| CCC(C)(C)c1ccc(Oc2ccc(N)cc2)cc1 | > 25 µM (inactive) | < 4.60 |  |
| CSc1nc2ccc(NS(=O)(=O)c3c(Cl)cccc3Cl)cc2s1 |  | < 4.60 | 4.71 |

| Structure (SMILES) | IC50 (WT cells) | pIC50 [1] | pIC50 (WT cells) |
| --- | --- | --- | --- |
| CCCCNC(=O)C1=C(N)C(C(=O)Nc2ccc(C)c(S(=O)(=O)N3CCCCC3)c2)SC1=Nc1ccc(C)cc1C (stereo not given) | > 25 µM (inactive) | < 4.60 |  |
| Cc1nc(N2CCCCC2C)c2c(C)c(C(=O)Nc3cccc(C(F)(F)F)c3)sc2n1 (stereo not given) |  | < 4.60 | 4.97 |
| Cc1nc(NC2=NCN(C3CCCCC3C)CN2)nc2ccccc12 (stereo not given) | > 25 µM (inactive) | < 4.60 |  |
| Clc1ccc(C(c2nnnn2C2CCCCC2)N(Cc2cccnc2)Cc2ccco2)cc1 (stereo not given) |  | < 4.60 | 4.81 |
| CS(=O)(=O)N1CCc2cc(C(=O)N3CCOCC3)ccc21 | > 25 µM (inactive) | < 4.60 |  |
| Cc1ccc(/C(=N\O)c2oc3c(C)c4oc(=O)cc(C)c4cc3c2C)cc1 |  | < 4.60 | 5.14 |
| CCOC(=O)/C(=C\c1ccc(OC(F)F)cc1)C1=Nn2c(nnc2-c2ccc(Cl)cc2)SC1 |  | < 4.60 | 4.96 |
| CCCCCOc1ccc2oc(=O)c3c(c2c1)CCCN3C(=O)CN1CCCC(C(=O)OCC)C1 (stereo not given) | > 25 µM (inactive) | < 4.60 |  |
| CCOC(=O)c1c(NC(=O)C(C)N2CCN(C(=O)c3ccco3)CC2)sc2c1CCCC2 (stereo not given) |  | < 4.60 | 4.96 |
| CC1CN(c2oc(Cc3cccc4ccccc34)nc2C#N)CC(C)O1 (stereo not given) | > 25 µM (inactive) | < 4.60 |  |
| N#CCCN(CCC#N)c1nnc(-c2ccccc2)s1 | > 25 µM (inactive) | < 4.60 |  |
| CC(C)(C)n1nnnc1C(c1cccs1)N1CCCC2(CCCCC2)C1 (stereo not given) |  | < 4.60 | 5.31 |
| Cc1ccc(Cl)cc1N1CCN(C(=O)c2cccc3c(=O)c(C)c(-c4ccccc4)oc23)CC1 |  | < 4.60 | 5.01 |
| O=C(COc1ccccc1[N+](=O)[O-])N/N=C/C=C/c1ccco1 | > 25 µM (inactive) | < 4.60 |  |
| Cc1[nH][nH]c(=O)c1C(c1c(C)[nH][nH]c1=O)c1cn(Cc2ccc(Cl)c(Cl)c2)c2ccccc12 |  | < 4.60 | 5.25 |
| CC1=CC(C)(C)N(C(=O)c2ccc(F)cc2)c2cc3c(cc21)OCO3 | > 25 µM (inactive) | < 4.90 |  |
| O=c1[nH]c(=O)n(Cc2ccco2)c2c1C(C(F)(F)F)(C(F)(F)F)N=C(Cc1ccccc1)N2 | > 25 µM (inactive) | < 4.90 |  |
| CCOCCCNC(=S)N1CCCN(c2nc3c(C)c(C)ccc3cc2C#N)CC1 |  | < 4.60 | 4.93 |
| Cn1c(CN2CCCCC2)nc2cc(NC(=O)c3ccc(Cl)cc3)ccc21 | > 25 µM (inactive) | < 4.60 |  |
| O=C(N/N=C/c1cccc(O)c1)c1ccc(COc2ccccc2Br)cc1 |  | < 4.60 | 4.73 |
| CSc1ccc(OC2CCCCC2NS(=O)(=O)c2ccc(Cl)cc2)cc1 (stereo not given) |  | < 4.60 | 4.79 |
| COC(=O)c1c(NC(=O)CN2CCC3(O)CCCCC3C2c2cc(OC)ccc2OC)sc(C)c1C (stereo not given) |  | < 4.60 | 5.09 |
| CCOc1ccc(Br)cc1C1C(C(=O)OC)=C(N)Oc2cc(N(C)C)ccc21 (stereo not given) |  | < 4.60 | 4.93 |
| O=C(c1cc(Cl)cc(Cl)c1)N1CCC(=O)N(C(COCc2ccccc2)Cc2ccccc2)CC1 (stereo not given) | > 25 µM (inactive) | < 4.60 |  |
| Cc1ccc(Nc2ccc(C(=O)O)cc2N)cc1 | > 25 µM (inactive) | < 4.60 |  |
| S=C(Nc1ccccc1Oc1ccccc1)Nc1cccc(Cl)c1Cl |  | 4.65 | 4.90 |
